Data on four compounds can be found in patent publication US6964979B2, “R-enantiomers of pyranoindole derivatives and the use thereof for the treatment of hepatitis C virus infection or disease” (Wyeth, priority 2002, dated 2005).

This assay concerns the target T1, HCV RdRp NS5B d21BK (BK strain, 1b subtype) (Hepatitis C virus genotype 1b, UniProt P26663).
T1 construct: NS5B from the BK strain (1b subtype) is expressed in E. coli as a protein in which the 21 C-terminal amino acids are replaced; made in house; host or cells: E. coli
Description: Hepatitis C polymerase (NS5B RdRp) inhibition, 33P-GTP incorporation filter assay. Particulars: NS5B d21BK 24 nM, 2 hours at room temperature; read-out: HCV pol IC50. It counts as biochemical. The text has this:
The ability of the compounds of the present invention to inhibit Hepatitis C Polymerase was established by the following experimental procedure:
NS5B from the BK strain (1b subtype) is expressed in E. coli as a protein in which the 21 C-terminal amino acids are replaced with a short linker and a hexahistidine tag ([…]). The purified protein is mixed with radioactive nucleotides and allowed to replicate a heteropolymeric RNA substrate, primed by an endogenous short hairpin, resulting in an approximately 760 nt product. The radioactive product is captured on a filter and quantitated after removal of the unincorporated nucleotides.
(1) Compounds 10 μl at 10 μg/ml in 15% dimethylsulfoxide (DMSO)
• When starting from 100 μg/ml compound stock in […]: • Dispense 5 μl 30% DMSO per well • Dispense 5 μl compound (100 μg/ml) per well. • When starting from 50 μg/ml compound stock in 15% DMSO: • Add 10 μl compound per well. (2) Enzyme Mix:
Add 20 μl enzyme mix into each well of the assay plate. Incubate compound and enzyme at room temperature for 15 minutes. (3) Template Mix—Prepare Ahead
Spin down a tube of RNA (5 μg/tube stored in 75% ethanol and 0.3 M sodium acetate) in a microcentrifuge for 20 minutes. at 4° C. One tube is enough for 1-1.5 plates. Remove as much ethanol from the tube as possible by inverting the tube. Be gentle, pellet RNA may not adhere to the tube. Vacuum dry the RNA. Resuspend the RNA by adding 1 ml of DEPC water, close the cap of the tube tightly. To dissolve RNA, incubate RNA solution on ice for ˜60 minutes and gently vortex. Spin briefly to ensure all RNA solution is down to the bottom of the tube before opening cap. Gently transfer RNA solution into a 5 ml or larger tube. Add another 3 ml of DEPC water (total 4 ml of volume).
Add the following volumes of reagents
Add 20 μl template mix per reaction (i.e. 20 ng of pOF per reaction or ˜3 nM) (4) Incubate reaction at room temperature (22-25° C.) for 2 hours. (5) Stop reaction by adding 50 μl of 170 mM EDTA. • Final concentration of EDTA is 85 mM. (6) Prewet filters of Millipore multiscreen assay plate by adding 200 μl of 0.5 M sodium phosphate buffer, pH 7.0 into each well. Let stand at room temperature for 2-3 minutes. (7) Place the multiscreen filter plate onto a Millipore Manifold and turn on vacuum to allow buffer to flow through. Turn off vacuum. Transfer 80 μl of the reaction product into each well of the filter plate. Let stand for 2-3 minutes. Turn on vacuum to filter reaction product. (8) Turn off vacuum. Add. 200 μl of 0.5 M sodium phosphate buffer, pH 7.0 into each well to wash filter. […]
Percent inhibition is calculated after background subtraction as a percent reduction of activity relative to the positive control (average value of the plate excluding the negative controls). […]

T1 sequence (P26663 2420-2989): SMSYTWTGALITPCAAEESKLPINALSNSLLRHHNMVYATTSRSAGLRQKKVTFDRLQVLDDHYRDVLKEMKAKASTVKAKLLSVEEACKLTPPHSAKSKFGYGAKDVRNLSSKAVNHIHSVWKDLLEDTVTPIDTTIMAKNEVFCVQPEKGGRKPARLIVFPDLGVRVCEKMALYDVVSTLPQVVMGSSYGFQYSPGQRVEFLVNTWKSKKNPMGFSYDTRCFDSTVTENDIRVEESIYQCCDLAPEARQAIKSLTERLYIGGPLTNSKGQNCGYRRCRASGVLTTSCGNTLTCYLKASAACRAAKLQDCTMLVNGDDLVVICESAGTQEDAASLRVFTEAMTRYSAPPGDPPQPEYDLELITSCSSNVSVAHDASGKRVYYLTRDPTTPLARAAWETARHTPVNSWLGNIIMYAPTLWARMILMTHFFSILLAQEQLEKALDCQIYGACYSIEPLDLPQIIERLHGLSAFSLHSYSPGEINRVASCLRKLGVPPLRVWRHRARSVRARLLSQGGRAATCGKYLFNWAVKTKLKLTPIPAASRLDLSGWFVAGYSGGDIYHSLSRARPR

Regarding `CCC[C@]1(CC(=O)O)OCCc2c1[nH]c1c(Cl)ccc(Cl)c21` [Example 3, [(R)-5,8-dichloro-1-propyl-1,3,4,9-tetrahydropyrano[3,4-b]indol-1-yl]acetic acid], the IC50 is 60 nM.

As for `CCC[C@]1(CC(=O)O)OCCc2c1[nH]c1c(C)ccc(C#N)c21` [Example 1, [(R)-5-cyano-8-methyl-1-propyl-1,3,4,9-tetrahydropyrano[3,4-b]indol-1-yl]acetic acid], the IC50 was found to be 330 nM.

For `CCC[C@]1(CC(=O)O)OCCc2c1[nH]c1c(C)cc(F)c(C#N)c21` [Example 4, [(R)-5-cyano-6-fluoro-8-methyl-1-propyl-1,3,4,9-tetrahydropyrano [3,4-b]indol-1-yl]acetic acid], the half-maximal inhibitory concentration (IC50) is 80 nM.

As to `CCC[C@]1(CC(=O)O)OCCc2c1[nH]c1c(F)ccc(C#N)c21` [Example 2, [(R)-5-cyano-8-fluoro-1-propyl-1,3,4,9-tetrahydropyrano[3,4-b]indol-1-yl]acetic acid], the concentration for half-maximal inhibition (IC50) worked out at 440 nM.

One may read the IC50 as the point on the concentration scale where inhibition reaches its midpoint.
